Measured values from patent publication US20030059843A1, “High throughput screening of ligand binding to macromolecules using high resolution powder diffraction” (priority 2001, published 2003).
“Also recorded” adds a separate entry of the source.

Molecular target: T1, Chicken egg lysozyme (Gallus gallus, UniProt P00698)
T1 construct: Chicken egg lysozyme (EC 3.2.1.17, FisherBiotech, 3X crystallized, lot Nos. 995417-12 and 996924-12); purchased FisherBiotech; host or cells: chicken egg (natural source)
T1 sequence (P00698 19-147): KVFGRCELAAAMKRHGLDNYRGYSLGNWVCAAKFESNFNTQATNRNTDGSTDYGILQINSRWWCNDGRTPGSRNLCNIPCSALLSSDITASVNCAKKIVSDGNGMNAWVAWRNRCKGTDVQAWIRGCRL
Assay: Ligand binding to polycrystalline lysozyme detected by high resolution X-ray powder diffraction
Excerpt: The screening method of the present invention can be as follows. Two samples of polycrystalline material are produced as slurries. By “slurry” is meant, for example, a suspension of microcrystals of a macromolecule or macromolecule-ligand complex in a liquid. One of the samples includes the target protein or macromolecule and a suitable solvent. The other of the samples includes the target protein or macromolecule, one or more selected ligands and the same solvent as in the first sample. High resolution powder diffraction patterns are obtained for the polycrystalline macromolecule material in each sample. The patterns from the first and second samples are then compared to see if there is any discernable difference between the two sets of diffraction patterns beyond expected or measured experimental error or variation. When there is such a discernable difference between the two sets of diffraction patterns, that is a positive indication for the formation of a complex between the target protein or macromolecule and one or more of the selected ligands. […] In another manner, the pattern of the first sample can be inspected or analyzed to determine the positions of the diffraction peaks from the unbound form of the target protein or macromolecule, while the pattern of the second sample can be inspected or analyzed to determine the positions of the diffraction peaks from the target protein or macromolecule in the presence of the one or more selected ligands. Differences in such diffraction peaks can then be used to determine if there is a difference indicating binding of a ligand. This process is readily automated via computerized data processing routines.
Chicken egg lysozyme (EC 3.2.1.17, FisherBiotech, 3X crystallized, lot Nos. 995417-12 and 996924-12) and N-acetylglucosamine (NAG, ICN Biomedicals, Inc. lot No. R9745), pH 6.0 0.05M Na2HPO4/KH2PO4 buffer (Fisher Sci.), pH 5.0 0.05M KHphthalate/NaOH buffer (Hydrion™, Aldrich Chem.) and NaCl (“Certified for Biological Use”, Fisher Sci.) were used as received. In a typical sample preparation, a polycrystalline slurry was made by combining ˜20 mg lysozyme (1.4 μmol), about 10 mg of NAG (45 μmol) and 200 μl of 0.5M NaCl pH 6.0 buffer with an agate mortar and pestle. Polycrystalline precipitate formed within a few seconds. The slurry was loaded into a 1.5 mm diameter glass capillary, and centrifuged to pack the slurry. Excess mother liquor was removed and the capillary flame sealed to prevent subsequent solvent evaporation. In a similar way, a polycrystalline sample of unbound lysozyme in pH 6.0 0.5M NaCl buffer was prepared. Similar samples with pH 5.0 0.5M NaCl buffer were also prepared. Samples were about 8 mm long. As each sample was prepared, X-ray powder diffraction data were immediately collected at room temperature (23° C.) on beam line X3bl at the National Synchrotron Light Source, Brookhaven National Laboratory, equipped with a double Si(111) monochromator and a Ge(111) analyser; the sample was spun during data collection to ensure good powder averaging.

SMILES: CC(=O)N[C@H]1C(O)O[C@H](CO)[C@@H](O)[C@@H]1O (stereo partly shown) [NAG, N-acetylglucosamine]
- lattice parameter a smaller compared to pure lysozyme from the same solvent (pH 5.0 0.5M NaCl): 0.06%
- lattice parameter c larger compared to pure lysozyme from the same solvent (pH 5.0 0.5M NaCl): 0.15%
- lattice parameter a smaller compared to apo-protein precipitated from the same buffer (pH 6.0 0.5M NaCl): 0.21%
- lattice parameter c larger compared to apo-protein precipitated from the same buffer (pH 6.0 0.5M NaCl): 0.49%
- change in powder diffraction pattern versus unbound lysozyme (complex formation) (slurry from pH 5.0 0.5M NaCl buffer, FIG. 2): no visible change in the powder pattern; also recorded: no changes evident
- change in powder diffraction pattern versus unbound lysozyme (complex formation) (slurry from pH 6.0 0.5M NaCl buffer, FIG. 1): a structural modification has occurred associated with the formation of a NAG/lysozyme complex
- change in powder diffraction pattern versus unbound lysozyme (complex formation) (slurry from pH 6.0 0.5M NaCl buffer, FIG. 1, listed as α-NAG): easily visible changes in the powder diffraction patterns
